# In PMC10289903 (Investigational New Drugs, 2023):
# Where two headings read alike, the source gives them in different places.
# System: patients with locally advanced or metastatic solid tumors
# Excerpt: This was a Phase Ib, multicenter, open-label, dose-finding clinical trial (NCT02610075). […] Three types of treatment schedules were investigated: cohorts bid 1, bid 2, qd 1.1, qd 2.1 and qd 3.1 received bid or qd treatment on a 5/9 schedule (5 days on treatment, followed by 9 days off) on a 14-day cycle. Cohorts qd 1.2, qd 2.2, and qd 3.2 received treatment on a 5/2 schedule (5 days on followed by 2 days off for 2 of 3 weeks) in a 21-day cycle. Cohorts qd 2.3 and qd 3.3 received treatment on a weekly 5/2 schedule in a 21-day cycle (Table 1). The highest dose level(s) at which less than one-third of evaluable patients (none of 3 patients or 1 of 6 patients) experienced a dose-limiting toxicity (DLT) was declared the MTD.
# The per protocol analysis set was defined as a subset of the full analysis set, excluding subjects having an important protocol deviation, to be used for analyses of efficacy endpoints if appropriate.
# [1] = qd 2.3: 250 mg qd 5/2 weekly (n=10)
compound,measurement,setting,value
"C=CCn1c(=O)c2cnc(Nc3ccc(N4CCN(C)CC4)cc3)nc2n1-c1cccc(C(C)(C)O)n1 [adavosertib, Adavosertib]",Thrombocytopenia (treatment-related AE),qd 2.1: 250 mg qd 5/9 (n=4),0 n (%)
same,Urinary tract infection (treatment-emergent AE),qd 2.1: 250 mg qd 5/9 (n=4),0 n (%)
same,Vomiting (treatment-emergent AE),qd 2.1: 250 mg qd 5/9 (n=4),0 n (%)
same,Vomiting (treatment-related AE),qd 2.1: 250 mg qd 5/9 (n=4),0 n (%)
same,Abdominal pain (treatment-emergent AE),qd 2.2: 250 mg qd 5/2 (n=3),0 n (%)
same,Abdominal pain (treatment-related AE),qd 2.2: 250 mg qd 5/2 (n=3),0 n (%)
same,Alanine aminotransferase increased (treatment-emergent AE),qd 2.2: 250 mg qd 5/2 (n=3),1 (33.3) n (%)
same,Anemia (treatment-emergent AE),qd 2.2: 250 mg qd 5/2 (n=3),1 (33.3) n (%)
same,Anemia (treatment-related AE),qd 2.2: 250 mg qd 5/2 (n=3),1 (33.3) n (%)
same,Any AE (treatment-emergent),qd 2.2: 250 mg qd 5/2 (n=3),3 (100) n (%)
same,Any grade ≥ 3 AE,qd 2.2: 250 mg qd 5/2 (n=3),3 (100.0) n (%)
same,Any treatment-related AE,qd 2.2: 250 mg qd 5/2 (n=3),3 (100) n (%)
same,Any treatment-related grade ≥ 3 AE,qd 2.2: 250 mg qd 5/2 (n=3),3 (100.0) n (%)
same,Asthenia (treatment-emergent AE),qd 2.2: 250 mg qd 5/2 (n=3),1 (33.3) n (%)
same,Asthenia (treatment-related AE),qd 2.2: 250 mg qd 5/2 (n=3),1 (33.3) n (%)
same,Back pain (treatment-emergent AE),qd 2.2: 250 mg qd 5/2 (n=3),1 (33.3) n (%)
same,Constipation (treatment-emergent AE),qd 2.2: 250 mg qd 5/2 (n=3),1 (33.3) n (%)
same,Constipation (treatment-related AE),qd 2.2: 250 mg qd 5/2 (n=3),1 (33.3) n (%)
same,Cough (treatment-emergent AE),qd 2.2: 250 mg qd 5/2 (n=3),1 (33.3) n (%)
same,Decreased appetite (treatment-emergent AE),qd 2.2: 250 mg qd 5/2 (n=3),1 (33.3) n (%)
same,Decreased appetite (treatment-related AE),qd 2.2: 250 mg qd 5/2 (n=3),0 n (%)
same,Dehydration (treatment-emergent AE),qd 2.2: 250 mg qd 5/2 (n=3),2 (66.7) n (%)
same,Dehydration (treatment-related AE),qd 2.2: 250 mg qd 5/2 (n=3),1 (33.3) n (%)
same,Diarrhea (treatment-emergent AE),qd 2.2: 250 mg qd 5/2 (n=3),2 (66.7) n (%)
same,Diarrhea (treatment-related AE),qd 2.2: 250 mg qd 5/2 (n=3),2 (66.7) n (%)
same,Dizziness (treatment-emergent AE),qd 2.2: 250 mg qd 5/2 (n=3),0 n (%)
same,Dyspepsia (treatment-emergent AE),qd 2.2: 250 mg qd 5/2 (n=3),0 n (%)
same,Dyspepsia (treatment-related AE),qd 2.2: 250 mg qd 5/2 (n=3),0 n (%)
same,Dyspnea (treatment-emergent AE),qd 2.2: 250 mg qd 5/2 (n=3),0 n (%)
same,Edema peripheral (treatment-emergent AE),qd 2.2: 250 mg qd 5/2 (n=3),0 n (%)
same,Fall (treatment-emergent AE),qd 2.2: 250 mg qd 5/2 (n=3),1 (33.3) n (%)
same,Fatigue (treatment-emergent AE),qd 2.2: 250 mg qd 5/2 (n=3),2 (66.7) n (%)
same,Fatigue (treatment-related AE),qd 2.2: 250 mg qd 5/2 (n=3),2 (66.7) n (%)
same,Headache (treatment-emergent AE),qd 2.2: 250 mg qd 5/2 (n=3),0 n (%)
same,Hypokalemia (treatment-emergent AE),qd 2.2: 250 mg qd 5/2 (n=3),1 (33.3) n (%)
same,Insomnia (treatment-emergent AE),qd 2.2: 250 mg qd 5/2 (n=3),0 n (%)
same,Muscle spasms (treatment-emergent AE),qd 2.2: 250 mg qd 5/2 (n=3),1 (33.3) n (%)
same,Myalgia (treatment-emergent AE),qd 2.2: 250 mg qd 5/2 (n=3),0 n (%)
same,Myalgia (treatment-related AE),qd 2.2: 250 mg qd 5/2 (n=3),0 n (%)
same,Nausea (treatment-emergent AE),qd 2.2: 250 mg qd 5/2 (n=3),2 (66.7) n (%)
same,Nausea (treatment-related AE),qd 2.2: 250 mg qd 5/2 (n=3),2 (66.7) n (%)
same,Neutropenia (treatment-emergent AE),qd 2.2: 250 mg qd 5/2 (n=3),0 n (%)
same,Neutropenia (treatment-related AE),qd 2.2: 250 mg qd 5/2 (n=3),0 n (%)
same,Pneumonia (treatment-emergent AE),qd 2.2: 250 mg qd 5/2 (n=3),1 (33.3) n (%)
same,Pyrexia (treatment-emergent AE),qd 2.2: 250 mg qd 5/2 (n=3),2 (66.7) n (%)
same,Rash (treatment-emergent AE),qd 2.2: 250 mg qd 5/2 (n=3),1 (33.3) n (%)
same,Thrombocytopenia (treatment-emergent AE),qd 2.2: 250 mg qd 5/2 (n=3),1 (33.3) n (%)
same,Thrombocytopenia (treatment-related AE),qd 2.2: 250 mg qd 5/2 (n=3),1 (33.3) n (%)
same,Urinary tract infection (treatment-emergent AE),qd 2.2: 250 mg qd 5/2 (n=3),1 (33.3) n (%)
same,Vomiting (treatment-emergent AE),qd 2.2: 250 mg qd 5/2 (n=3),2 (66.7) n (%)
same,Vomiting (treatment-related AE),qd 2.2: 250 mg qd 5/2 (n=3),2 (66.7) n (%)
same,Abdominal pain (treatment-emergent AE),[1],2 (20.0) n (%)
same,Abdominal pain (treatment-related AE),[1],0 n (%)
same,Alanine aminotransferase increased (treatment-emergent AE),[1],1 (10.0) n (%)
same,Anemia (treatment-emergent AE),[1],2 (20.0) n (%)
same,Anemia (treatment-related AE),[1],1 (10.0) n (%)
same,Any AE (treatment-emergent),[1],8 (80.0) n (%)
same,Any grade ≥ 3 AE,[1],5 (50.0) n (%)
same,Any treatment-related AE,[1],8 (80.0) n (%)
same,Any treatment-related grade ≥ 3 AE,[1],4 (40.0) n (%)
same,Asthenia (treatment-emergent AE),[1],0 n (%)
same,Asthenia (treatment-related AE),[1],0 n (%)
same,Back pain (treatment-emergent AE),[1],2 (20.0) n (%)
same,Constipation (treatment-emergent AE),[1],2 (20.0) n (%)
same,Constipation (treatment-related AE),[1],2 (20.0) n (%)
same,Cough (treatment-emergent AE),[1],0 n (%)
same,Decreased appetite (treatment-emergent AE),[1],3 (30.0) n (%)
same,Decreased appetite (treatment-related AE),[1],2 (20.0) n (%)
same,Dehydration (treatment-emergent AE),[1],5 (50.0) n (%)
same,Dehydration (treatment-related AE),[1],2 (20.0) n (%)
same,Diarrhea (treatment-emergent AE),[1],7 (70.0) n (%)
same,Diarrhea (treatment-related AE),[1],7 (70.0) n (%)
same,Dizziness (treatment-emergent AE),[1],2 (20.0) n (%)
same,Dyspepsia (treatment-emergent AE),[1],0 n (%)
same,Dyspepsia (treatment-related AE),[1],0 n (%)
same,Dyspnea (treatment-emergent AE),[1],0 n (%)
same,Edema peripheral (treatment-emergent AE),[1],2 (20.0) n (%)
same,Fall (treatment-emergent AE),[1],2 (20.0) n (%)
same,Fatigue (treatment-emergent AE),[1],3 (30.0) n (%)
same,Fatigue (treatment-related AE),[1],2 (20.0) n (%)
same,Headache (treatment-emergent AE),[1],0 n (%)
same,Hypokalemia (treatment-emergent AE),[1],3 (30.0) n (%)
same,Insomnia (treatment-emergent AE),[1],3 (30.0) n (%)
same,Muscle spasms (treatment-emergent AE),[1],1 (10.0) n (%)
same,Myalgia (treatment-emergent AE),[1],2 (20.0) n (%)
same,Myalgia (treatment-related AE),[1],2 (20.0) n (%)
same,Nausea (treatment-emergent AE),[1],3 (30.0) n (%)
same,Nausea (treatment-related AE),[1],2 (20.0) n (%)
same,Neutropenia (treatment-emergent AE),[1],1 (10.0) n (%)
same,Neutropenia (treatment-related AE),[1],1 (10.0) n (%)
same,Pneumonia (treatment-emergent AE),[1],1 (10.0) n (%)
same,Pyrexia (treatment-emergent AE),[1],0 n (%)
same,Rash (treatment-emergent AE),[1],2 (20.0) n (%)
same,Thrombocytopenia (treatment-emergent AE),[1],3 (30.0) n (%)
same,Thrombocytopenia (treatment-related AE),[1],3 (30.0) n (%)
same,Urinary tract infection (treatment-emergent AE),[1],1 (10.0) n (%)
same,Vomiting (treatment-emergent AE),[1],2 (20.0) n (%)
same,Vomiting (treatment-related AE),[1],1 (10.0) n (%)
same,Abdominal pain (treatment-emergent AE),qd 3.1: 300 mg qd 5/9 (n=4),1 (25.0) n (%)
same,Abdominal pain (treatment-related AE),qd 3.1: 300 mg qd 5/9 (n=4),1 (25.0) n (%)
same,Alanine aminotransferase increased (treatment-emergent AE),qd 3.1: 300 mg qd 5/9 (n=4),0 n (%)
same,Anemia (treatment-emergent AE),qd 3.1: 300 mg qd 5/9 (n=4),1 (25.0) n (%)
same,Anemia (treatment-related AE),qd 3.1: 300 mg qd 5/9 (n=4),0 n (%)
same,Any AE (treatment-emergent),qd 3.1: 300 mg qd 5/9 (n=4),4 (100) n (%)
same,Any grade ≥ 3 AE,qd 3.1: 300 mg qd 5/9 (n=4),3 (75.0) n (%)
same,Any treatment-related AE,qd 3.1: 300 mg qd 5/9 (n=4),2 (50.0) n (%)
same,Any treatment-related grade ≥ 3 AE,qd 3.1: 300 mg qd 5/9 (n=4),1 (25.0) n (%)
same,Asthenia (treatment-emergent AE),qd 3.1: 300 mg qd 5/9 (n=4),0 n (%)
same,Asthenia (treatment-related AE),qd 3.1: 300 mg qd 5/9 (n=4),0 n (%)
same,Back pain (treatment-emergent AE),qd 3.1: 300 mg qd 5/9 (n=4),1 (25.0) n (%)
same,Constipation (treatment-emergent AE),qd 3.1: 300 mg qd 5/9 (n=4),1 (25.0) n (%)
same,Constipation (treatment-related AE),qd 3.1: 300 mg qd 5/9 (n=4),0 n (%)
same,Cough (treatment-emergent AE),qd 3.1: 300 mg qd 5/9 (n=4),1 (25.0) n (%)
same,Decreased appetite (treatment-emergent AE),qd 3.1: 300 mg qd 5/9 (n=4),0 n (%)
same,Decreased appetite (treatment-related AE),qd 3.1: 300 mg qd 5/9 (n=4),0 n (%)
